The text below walks through data of patent US5399487A, “6-peptidylamino-1-naphthalenesulfonamides useful as fluorogenic proteolytic enzyme substrates” (Haematologic Technologies, Inc., priority 1993, dated 1995).

Molecules are shown by their SMILES.

Holding throughout (assay): Fluorogenic enzyme assay (Example 5)
What all share (format): biochemical

The target in assay [1] is T1, thrombin (IIa) (Homo sapiens, UniProt P00734).
T1 construct: 0.5 nM human thrombin (IIa)
The arrangement: key to Hydrolysis kinetic constants, IIa (symbol b): Slow substrate hydrolysis, no kinetic constants calculated. To be noted: for Hydrolysis kinetic constants, IIa (symbol b) / Km / kcat /Km, IIa / kcat, IIa: Table 7; for Time (min) for 10% hydrolysis, IIa: enzyme 100 nM, substrate 1 μM. As for the experimental part:
(§1) Enzyme assays (except factor VIIa assays, see below) were conducted in 20 mM Tris, 150 mM NaCl, pH 7.4 (TBS) at room temperature (22° C.). The final volume for all reaction mixtures was 2.0 ml. Fluorogenic substrates were dissolved in DMSO to a stock concentration of 10 mM. The 10 mM stock solution was diluted in TBS to the final working concentration prior to all assays. Enzyme was added to mixtures containing buffer components and substrate and the initial rate of substrate hydrolysis was measured as the change in fluorescent intensity over time, corresponding to the generation of the particular 6-amino-1-naphthalenesulfonamide fluorophore from the provided substrate. Quantitation of substrate hydrolysis was accomplished by establishing a standard curve from the appropriate fluorescent moiety. Fluorescence was monitored (continuously or discontinuously) using a Perkin Elmer fluorescence spectrophotometer, model MPF-44A, equipped with a standard chart recorder. The fluorophore was detected using monochrometers set at an excitation wavelength of 352 nm and an emission wavelength of 470 nm. Light scattering artifacts were minimized using a 399 nm cut off filter in the emission light beam.
(§2) The kinetic constants of substrate hydrolysis were determined using the non-linear least squares regression analysis program ENZFITTER (Cambridge, UK). This program was used to iteratively fit initial rates of substrate hydrolysis to the Michaelis-Menten equation and the kinetic constants of substrate hydrolysis (Km) and (kcat) were calculated.

In assay [2] the target is factor Xa (Homo sapiens, UniProt P00742). To be noted: for Km / kcat /Km, Xa / kcat, Xa: Table 7; for Time (min) for 10% hydrolysis, Xa: enzyme 100 nM, substrate 1 μM. As for the experimental part:
as §1, §2

Assay [3] addresses activated protein C (APC) (Homo sapiens, UniProt P04070). Further details: key to Hydrolysis kinetic constants, APC (symbol b): Slow substrate hydrolysis, no kinetic constants calculated. Conditions: for Time (min) for 10% hydrolysis, APC: enzyme 100 nM, substrate 1 μM; for Hydrolysis kinetic constants, APC (symbol b) / Km / kcat /Km, APC / kcat, APC: Table 7. As for the experimental part: as §1, §2

The target in assay [4] is tissue plasminogen activator (t-PA) (Homo sapiens, UniProt P00750). To be noted: enzyme 100 nM, substrate 1 μM; for hydrolysis, t-PA (symbol N.D.): after 24 hrs. As for the experimental part:
as §1, §2

For assay [5], the target named is urokinase (u-PA) (Homo sapiens, UniProt P00749). To be noted: enzyme 100 nM, substrate 1 μM; for hydrolysis, u-PA (symbol N.D.): after 24 hrs. As for the experimental part:
as §1, §2

The target in assay [6] is plasmin (Plm) (Homo sapiens, UniProt P00747). To be noted: enzyme 100 nM, substrate 1 μM; for Time (min) for 5% hydrolysis, Plm: footnote b. As for the experimental part:
as §1, §2

Chain of tissue plasminogen activator (t-PA) (P00750 36-562, species assumed): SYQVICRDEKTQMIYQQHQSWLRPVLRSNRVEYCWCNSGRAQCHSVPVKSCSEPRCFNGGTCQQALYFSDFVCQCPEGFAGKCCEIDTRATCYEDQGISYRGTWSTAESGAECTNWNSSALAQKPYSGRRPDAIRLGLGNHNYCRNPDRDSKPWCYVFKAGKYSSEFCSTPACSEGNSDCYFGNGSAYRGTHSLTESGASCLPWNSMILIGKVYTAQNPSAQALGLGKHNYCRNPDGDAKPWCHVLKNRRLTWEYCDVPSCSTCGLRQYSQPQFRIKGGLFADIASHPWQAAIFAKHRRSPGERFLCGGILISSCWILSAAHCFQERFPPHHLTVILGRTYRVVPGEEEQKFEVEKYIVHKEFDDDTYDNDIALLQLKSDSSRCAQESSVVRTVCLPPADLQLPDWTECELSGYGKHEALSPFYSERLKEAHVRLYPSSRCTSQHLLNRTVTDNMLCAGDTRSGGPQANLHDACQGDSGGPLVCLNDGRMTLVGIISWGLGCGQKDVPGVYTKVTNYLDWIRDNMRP
Chain of factor Xa (P00742 235-488 limits assumed): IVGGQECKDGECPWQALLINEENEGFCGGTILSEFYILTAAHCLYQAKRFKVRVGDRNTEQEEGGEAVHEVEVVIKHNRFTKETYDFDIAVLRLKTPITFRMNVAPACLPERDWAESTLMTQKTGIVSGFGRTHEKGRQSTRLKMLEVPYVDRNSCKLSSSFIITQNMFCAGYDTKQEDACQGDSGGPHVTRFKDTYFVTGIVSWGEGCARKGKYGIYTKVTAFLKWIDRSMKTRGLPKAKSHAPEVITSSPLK
Chain of factor Xa (P00742 41-179 limits assumed): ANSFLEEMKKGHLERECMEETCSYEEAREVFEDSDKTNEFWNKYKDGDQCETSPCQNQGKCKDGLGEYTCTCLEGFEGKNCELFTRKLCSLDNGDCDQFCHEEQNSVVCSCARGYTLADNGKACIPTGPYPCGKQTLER
Chain of plasmin (Plm) (P00747 581-810 limits assumed, species assumed): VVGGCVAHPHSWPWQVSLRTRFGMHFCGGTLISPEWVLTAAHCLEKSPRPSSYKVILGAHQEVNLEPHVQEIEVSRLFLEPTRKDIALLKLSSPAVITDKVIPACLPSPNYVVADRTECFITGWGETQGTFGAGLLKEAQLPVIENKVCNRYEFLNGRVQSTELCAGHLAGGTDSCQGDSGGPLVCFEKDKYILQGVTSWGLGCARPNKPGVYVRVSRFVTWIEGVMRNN
Chain of plasmin (Plm) (P00747 97-580 limits assumed, species assumed): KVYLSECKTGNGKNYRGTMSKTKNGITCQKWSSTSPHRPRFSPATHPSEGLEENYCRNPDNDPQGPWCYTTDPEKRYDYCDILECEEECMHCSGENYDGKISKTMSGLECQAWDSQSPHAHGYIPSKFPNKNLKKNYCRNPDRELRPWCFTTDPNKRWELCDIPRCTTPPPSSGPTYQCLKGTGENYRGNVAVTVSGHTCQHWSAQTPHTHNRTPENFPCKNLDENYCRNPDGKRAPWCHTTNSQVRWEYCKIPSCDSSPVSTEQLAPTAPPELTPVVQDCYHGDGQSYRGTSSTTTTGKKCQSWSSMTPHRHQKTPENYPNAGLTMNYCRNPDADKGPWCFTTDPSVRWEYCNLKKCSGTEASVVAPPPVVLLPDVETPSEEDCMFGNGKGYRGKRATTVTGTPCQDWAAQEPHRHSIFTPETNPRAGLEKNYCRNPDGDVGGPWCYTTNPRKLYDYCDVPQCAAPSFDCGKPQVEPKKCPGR
Chain of activated protein C (APC) (P04070 212-461 limits assumed): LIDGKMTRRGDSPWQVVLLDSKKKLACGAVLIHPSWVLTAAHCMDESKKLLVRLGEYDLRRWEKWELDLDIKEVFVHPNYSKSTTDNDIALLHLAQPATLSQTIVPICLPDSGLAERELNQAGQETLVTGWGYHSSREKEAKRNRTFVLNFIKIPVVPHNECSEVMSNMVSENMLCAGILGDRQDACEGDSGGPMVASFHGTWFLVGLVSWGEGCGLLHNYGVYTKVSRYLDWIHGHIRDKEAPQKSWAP
Chain of activated protein C (APC) (P04070 43-197 limits assumed): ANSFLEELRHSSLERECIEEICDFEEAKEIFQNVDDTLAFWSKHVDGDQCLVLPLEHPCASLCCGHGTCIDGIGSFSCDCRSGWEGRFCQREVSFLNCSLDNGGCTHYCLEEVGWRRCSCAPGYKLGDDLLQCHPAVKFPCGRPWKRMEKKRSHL

As a reminder, the Km is the concentration of substrate that gives half-maximal velocity. Consider `Br.CCN(CC)S(=O)(=O)c1cccc2cc(NC(=O)[C@H](CCCNC(=N)N)NC(=O)OCc3ccccc3)ccc12` [(N^α -Z)ArgANSNR1 R2; C2 H5; C2 H5, 6-(N^α -benzyloxycarbonyl-L-arginyl)amino-1-(N,N-diethyl)napthalenesulfonamide hydrobromides], for which, in assay [1], the “Hydrolysis kinetic constants, IIa (symbol b)” value is “b” and the “Time (min) for 10% hydrolysis, IIa” value is on record as 165 min. In addition, in assay [2], the Km was 200 µM; the “kcat /Km, Xa” value is 1290 M⁻¹ s⁻¹; the “kcat, Xa” value is 0.26 s⁻¹; the “Time (min) for 10% hydrolysis, Xa” value is listed as 14 min. In addition, the “Time (min) for 10% hydrolysis, APC” value in assay [3] was 1080 min. The “hydrolysis, t-PA (symbol N.D.)” value in assay [4] is listed as “N.D. (Less than 5% hydrolysis after 24 hrs.)”. Moreover, in assay [5], the “hydrolysis, u-PA (symbol N.D.)” value is recorded as “N.D. (Less than 5% hydrolysis after 24 hrs.)”. Besides, the “Time (min) for 5% hydrolysis, Plm” value in assay [6] was found to be 1370 min.
For the molecule `Br.N=C(N)NCCC[C@H](NC(=O)OCc1ccccc1)C(=O)Nc1ccc2c(S(=O)(=O)N3CCCCCC3)cccc2c1` [(N^α -Z)ArgANSNR1 R2; (CH2)6], in assay [1], the “Hydrolysis kinetic constants, IIa (symbol b)” value is recorded as “b” and the “Time (min) for 10% hydrolysis, IIa” value is 90 min. Also, in assay [2], the Km was 427 µM; the “kcat /Km, Xa” value was 293 M⁻¹ s⁻¹; the “kcat, Xa” value is 0.13 s⁻¹; the “Time (min) for 10% hydrolysis, Xa” value is on record as 20 min. In assay [3], the “Hydrolysis kinetic constants, APC (symbol b)” value is on record as “b” and the “Time (min) for 10% hydrolysis, APC” value was 813 min. For the same molecule, the “hydrolysis, t-PA (symbol N.D.)” value in assay [4] is recorded as “N.D. (Less than 5% hydrolysis after 24 hrs.)”. Also, in assay [5], the “hydrolysis, u-PA (symbol N.D.)” value is given as “N.D. (Less than 5% hydrolysis after 24 hrs.)”. Besides, in assay [6], the “Time (min) for 5% hydrolysis, Plm” value was found to be 770 min.
In the case of `Br.N=C(N)NCCC[C@H](NC(=O)OCc1ccccc1)C(=O)Nc1ccc2c(S(=O)(=O)NCc3ccccc3)cccc2c1` [(N^α -Z)ArgANSNR1 R2; H; benzyl], in assay [1], the Michaelis constant (Km) is 41 µM; the “kcat /Km, IIa” value is 1680 M⁻¹ s⁻¹; the “kcat, IIa” value was 0.07 s⁻¹; the “Time (min) for 10% hydrolysis, IIa” value is listed as 17 min. For the same molecule, in assay [2], the Km is 213 µM; the “kcat /Km, Xa” value was 198 M⁻¹ s⁻¹; the “kcat, Xa” value was 0.04 s⁻¹; the “Time (min) for 10% hydrolysis, Xa” value is 46 min. Further, in assay [3], the Km is 218 µM; the “kcat /Km, APC” value is 1050 M⁻¹ s⁻¹; the “kcat, APC” value was 0.23 s⁻¹; the “Time (min) for 10% hydrolysis, APC” value is on record as 12 min. Besides, in assay [4], the “Time (min) for 10% hydrolysis, t-PA” value came to 510 min. Besides, the “Time (min) for 10% hydrolysis, u-PA” value in assay [5] was found to be 19 min. Further, the “Time (min) for 10% hydrolysis, Plm” value in assay [6] is listed as 330 min.
In the case of `Br.CC(C)CNS(=O)(=O)c1cccc2cc(NC(=O)[C@H](CCCNC(=N)N)NC(=O)OCc3ccccc3)ccc12` [(N^α -Z)ArgANSNR1 R2; H; i-C4 H9], in assay [1], the Km is 35.3 µM; the “kcat /Km, IIa” value is 1420 M⁻¹ s⁻¹; the “kcat, IIa” value was 0.05 s⁻¹; the “Time (min) for 10% hydrolysis, IIa” value is recorded as 25 min. In assay [2], the Km is 86.5 µM; the “kcat /Km, Xa” value was 811 M⁻¹ s⁻¹; the “kcat, Xa” value is 0.07 s⁻¹; the “Time (min) for 10% hydrolysis, Xa” value was 33 min. In assay [3], the Km was 960 µM; the “kcat /Km, APC” value was 1670 M⁻¹ s⁻¹; the “kcat, APC” value is 1.6 s⁻¹; the “Time (min) for 10% hydrolysis, APC” value is recorded as 17 min. In addition, the “hydrolysis, t-PA (symbol N.D.)” value in assay [4] is recorded as “N.D. (Less than 5% hydrolysis after 24 hrs.)”. In addition, in assay [5], the “Time (min) for 10% hydrolysis, u-PA” value came out at 200 min. Further, the “Time (min) for 5% hydrolysis, Plm” value in assay [6] came out at 1620 min.
Turning to `Br.N=C(N)NCCC[C@H](NC(=O)OCc1ccccc1)C(=O)Nc1ccc2c(S(=O)(=O)NC3CCCCC3)cccc2c1` [(N^α -Z)ArgANSNR1 R2; H; cyclo-C6 H11], in assay [1], the Km is 27.9 µM; the “kcat /Km, IIa” value was 1090 M⁻¹ s⁻¹; the “kcat, IIa” value was 0.03 s⁻¹; the “Time (min) for 10% hydrolysis, IIa” value is given as 23 min. Besides, in assay [2], the Michaelis constant (Km) was 51.8 µM; the “kcat /Km, Xa” value is 633 M⁻¹ s⁻¹; the “kcat, Xa” value was 0.03 s⁻¹; the “Time (min) for 10% hydrolysis, Xa” value is 55 min. Also, in assay [3], the Michaelis-Menten constant (Km) is 810 µM; the “kcat /Km, APC” value was 2470 M⁻¹ s⁻¹; the “kcat, APC” value is 0.44 s⁻¹; the “Time (min) for 10% hydrolysis, APC” value is 12 min. Further, the “hydrolysis, t-PA (symbol N.D.)” value in assay [4] is recorded as “N.D. (Less than 5% hydrolysis after 24 hrs.)”. Besides, in assay [5] (footnote b), the “Time (min) for 5% hydrolysis, u-PA” value stood at 1620 min. For the same molecule, the “Time (min) for 10% hydrolysis, Plm” value in assay [6] stood at 1140 min.
As to `Br.CCCCCNS(=O)(=O)c1cccc2cc(NC(=O)[C@H](CCCNC(=N)N)NC(=O)OCc3ccccc3)ccc12` [(N^α -Z)ArgANSNR1 R2; H; C5 H11], in assay [1], the Km was 41.4 µM; the “kcat /Km, IIa” value was 242 M⁻¹ s⁻¹; the “kcat, IIa” value was 0.01 s⁻¹; the “Time (min) for 10% hydrolysis, IIa” value is recorded as 30 min. For the same molecule, in assay [2], the Km is 36.8 µM; the “kcat /Km, Xa” value was 979 M⁻¹ s⁻¹; the “kcat, Xa” value was 0.04 s⁻¹; the “Time (min) for 10% hydrolysis, Xa” value is recorded as 45 min. For the same molecule, in assay [3], the Km is 436 µM; the “kcat /Km, APC” value was 1830 M⁻¹ s⁻¹; the “kcat, APC” value is 0.8 s⁻¹; the “Time (min) for 10% hydrolysis, APC” value is 12 min. Also, the “Time (min) for 5% hydrolysis, t-PA” value in assay [4] (footnote b) is on record as 1280 min. Besides, the “Time (min) for 10% hydrolysis, u-PA” value in assay [5] came to 43 min. Besides, in assay [6], the “Time (min) for 10% hydrolysis, Plm” value is 510 min.
In the case of `Br.CN(C)S(=O)(=O)c1cccc2cc(NC(=O)[C@H](CCCNC(=N)N)NC(=O)OCc3ccccc3)ccc12` [(N^α -Z)ArgANSNR1 R2; CH3; CH3], in assay [1], the Km was 22.6 µM; the “kcat /Km, IIa” value is 630 M⁻¹ s⁻¹; the “kcat, IIa” value is 0.01 s⁻¹; the “Time (min) for 10% hydrolysis, IIa” value is 45 min. For the same molecule, in assay [2], the Km was 91.4 µM; the “kcat /Km, Xa” value is 1020 M⁻¹ s⁻¹; the “kcat, Xa” value is 0.09 s⁻¹; the “Time (min) for 10% hydrolysis, Xa” value is recorded as 15 min. Also, in assay [3], the “Hydrolysis kinetic constants, APC (symbol b)” value is “b” and the “Time (min) for 10% hydrolysis, APC” value is given as 200 min. The “hydrolysis, t-PA (symbol N.D.)” value in assay [4] is reported as “N.D. (Less than 5% hydrolysis after 24 hrs.)”. Further, in assay [5], the “hydrolysis, u-PA (symbol N.D.)” value was “N.D. (Less than 5% hydrolysis after 24 hrs.)”. Also, in assay [6], the “Time (min) for 10% hydrolysis, Plm” value is 1140 min.
